Values of other authors as cited in PubChem BioAssay AID1259409 (Chemical Carcinogenesis Research Information System (CCRIS), 2018).

Tested on: rodent chemically induced tumor inhibition, incidence and multiplicity
Test: CCRIS tumor inhibitor studies

## Cn1c(=O)c2c(ncn2C)n(C)c1=O
Carcinogen: DIETHYLNITROSAMINE, 55-18-5, Dose [Inhibitor]: 0, 600 MG/L IN DRINKING WATER BEGINNING 3 D PRIOR TO FIRST CARCINOGEN DOSE AND CONTINUING TO 14 D POST LAST CARCINOGEN D, Route [Inhibitor]: ORAL, Species: RAT, Strain/Sex: BD6/FEMALE, Target Tissue: Type of Lesion: ESOPHAGUS: TUMOR, Dose [Carcinogen]: 80 MG/KG BW 1/WK FOR 7 WK, Promoter: NONE USED
  tumour outcome (control, treated, inhibition, significance): 25%, 11%, 56%, not significant
Carcinogen: DIETHYLNITROSAMINE, 55-18-5, Dose [Inhibitor]: 0, 600 MG/L IN DRINKING WATER BEGINNING 3 D PRIOR TO FIRST CARCINOGEN DOSE AND CONTINUING TO 14 D POST LAST CARCINOGEN D, Route [Inhibitor]: ORAL, Species: RAT, Strain/Sex: BD6/FEMALE, Target Tissue: Type of Lesion: ESOPHAGUS: TUMOR, Dose [Carcinogen]: 80 MG/KG BW 1/WK FOR 8 WK, Promoter: NONE USED
  tumour outcome (control, treated, inhibition, significance): 18%, 22%, -22%, not significant
Carcinogen: DIETHYLNITROSAMINE, 55-18-5, Dose [Inhibitor]: 0, 600 MG/L IN DRINKING WATER BEGINNING 3 D PRIOR TO FIRST CARCINOGEN DOSE AND CONTINUING TO 14 D POST LAST CARCINOGEN D, Route [Inhibitor]: ORAL, Species: RAT, Strain/Sex: BD6/FEMALE, Target Tissue: Type of Lesion: LIVER: TUMOR, Dose [Carcinogen]: 80 MG/KG BW 1/WK FOR 7 WK, Promoter: NONE USED
  tumour outcome (control, treated, inhibition, significance): 64%, 56%, 13%, not significant
Carcinogen: DIETHYLNITROSAMINE, 55-18-5, Dose [Inhibitor]: 0, 600 MG/L IN DRINKING WATER FOR DURATION OF STUDY BEGINNING 4 D POST CARCINOGEN TREATMENT (STUDY DURATION: 6 MO), Route [Inhibitor]: ORAL, Species: RAT, Strain/Sex: BD6/FEMALE, Target Tissue: Type of Lesion: LIVER: TUMOR, Dose [Carcinogen]: 80 MG/KG BW 1/WK FOR 9 WK, Promoter: NONE USED
  tumour outcome (control, treated, inhibition, significance): 100%, 100%, 0%, not significant
Carcinogen: DIETHYLNITROSAMINE, 55-18-5, Dose [Inhibitor]: 0, 600 MG/L IN DRINKING WATER FOR DURATION OF STUDY BEGINNING 4 D POST CARCINOGEN TREATMENT(STUDY DURATION: 6 MO), Route [Inhibitor]: ORAL, Species: RAT, Strain/Sex: BD6/FEMALE, Target Tissue: Type of Lesion: ESOPHAGUS: TUMOR, Dose [Carcinogen]: 80 MG/KG BW 1/WK FOR 9 WK, Promoter: NONE USED
  tumour outcome (control, treated, inhibition, significance): 29%, 21%, 28%, not significant
Carcinogen: DIETHYLNITROSAMINE, 55-18-5, Dose [Inhibitor]: 0, 600 MG/L IN DRINKING WATER FOR DURATION OF STUDY BEGINNING 7 D PRIOR TO CARCINOGEN TREATMENT (STUDY DURATION: 6 MO), Route [Inhibitor]: ORAL, Species: RAT, Strain/Sex: BD6/FEMALE, Target Tissue: Type of Lesion: ESOPHAGUS: TUMOR, Dose [Carcinogen]: 80 MG/KG BW 1/WK FOR 5 WK, Promoter: NONE USED
  tumour outcome (control, treated, inhibition, significance): 6%, 11%, -83%, not significant
Carcinogen: DIETHYLNITROSAMINE, 55-18-5, Dose [Inhibitor]: 0, 600 MG/L IN DRINKING WATER FOR DURATION OF STUDY BEGINNING 7 D PRIOR TO CARCINOGEN TREATMENT (STUDY DURATION: 6 MO), Route [Inhibitor]: ORAL, Species: RAT, Strain/Sex: BD6/FEMALE, Target Tissue: Type of Lesion: LIVER: TUMOR, Dose [Carcinogen]: 80 MG/KG BW 1/WK FOR 5 WK, Promoter: NONE USED
  tumour outcome (control, treated, inhibition, significance): 44%, 41%, 7%, not significant
Carcinogen: DIETHYNITROSAMINE, 55-18-5, Dose [Inhibitor]: 0, 600 MG/L IN DRINKING WATER BEGINNING 3 D PRIOR TO FIRST CARCINOGEN DOSE AND CONTINUING TO 14 D POST LAST CARCINOGEN D, Route [Inhibitor]: ORAL, Species: RAT, Strain/Sex: BD6/FEMALE, Target Tissue: Type of Lesion: LIVER: TUMOR, Dose [Carcinogen]: 80 MG/KG BW 1/WK FOR 8 WK, Promoter: NONE USED
  tumour outcome (control, treated, inhibition, significance): 82%, 72%, 12%, not significant
Carcinogen: N,N-DIETHYLNITROSAMINE, 55-18-5, Dose [Inhibitor]: 600 MG/L IN DRINKING WATER DAILY STARTING 3 D BEFORE START OF CARCINOGEN INJECTION AND CONTINUING UNTIL 2 WK AFTER LAST, Route [Inhibitor]: ORAL, Species: RAT, Strain/Sex: BDIV AND WISTAR/MALE, Target Tissue: Type of Lesion: LIVER: TUMOR, Dose [Carcinogen]: 80 MG/KG BW IN 0.2 ML 0.9% SALINE 1/WK FOR 10 WK, Promoter: NONE USED
  tumour outcome (control, treated, inhibition, significance): 18/22 (82%), 12/18 (67%), 18%, not calculated
Carcinogen: N-METHYL-N'-NITRO-N-NITROSOGUANIDINE, 70-25-7, Dose [Inhibitor]: 0, 0.25% IN DRINKING WATER FOR 32 WK BEGINNING POST CARCINOGEN TREATMENT (STUDY DURATION: 40 WK), Route [Inhibitor]: ORAL, Species: RAT, Strain/Sex: WISTAR/MALE, Target Tissue: Type of Lesion: GLANDULAR STOMACH (PYLORUS): ADENOCARCINOMA, Dose [Carcinogen]: 100 PPM IN DRINKING WATER FOR 8 WK, Promoter: SODIUM CHLORIDE, 7647-14-5
  tumour outcome (control, treated, inhibition, significance): 4/29 (14%), 0/28 (0%), 100%, p<0.05
Carcinogen: N-METHYL-N-NITROSOUREA, 684-93-5, Dose [Inhibitor]: 0, 500 MG/L IN DRINKING WATER BEGINNING AT 60 D OF AGE AND CONTINUING FOR DURATION OF STUDY (STUDY DURATION: 26 WK), Route [Inhibitor]: ORAL, Species: RAT, Strain/Sex: SPRAGUE-DAWLEY/FEMALE, Target Tissue: Type of Lesion: MAMMARY GLAND: CARCINOMA, Dose [Carcinogen]: 2.5 MG/100 G BW ONCE AT 57 D OF AGE, Promoter: NONE USED
  tumour outcome (control, treated, inhibition, significance): 34/40 (85%), 31/40 (78%), 8%, not significant
Carcinogen: N-METHYL-N-NITROSOUREA, 684-93-5, Dose [Inhibitor]: 0, 500 UG/L IN DRINKING WATER BEGINNING AT 29 D OF AGE AND CONTINUING TO D 60 OF AGE (STUDY DURATION: 30 WK), Route [Inhibitor]: ORAL, Species: RAT, Strain/Sex: SPRAGUE-DAWLEY, Target Tissue: Type of Lesion: MAMMARY GLAND: CARCINOMA, Dose [Carcinogen]: 2.5 MG/100 G BW ONCE AT 57 D OF AGE, Promoter: NONE USED
  tumour outcome (control, treated, inhibition, significance): 34/40 (85%), 32/40 (80%), 6%, not significant
Carcinogen: SUBCUTANEOUS, Dose [Inhibitor]: 4-(METHYLNITROSAMINO)-1-(3-PYRIDYL-1-BUTANONE), 64091-91-4, Route [Inhibitor]: 0, 680 PPM IN DRINKING WATER FOR 22 WK BEGINNING 1 WK PRIOR TO CARCINOGEN TREATMENT (STUDY DURATION: 101 WK), Species: RAT, Strain/Sex: ORAL, Target Tissue: Type of Lesion: LIVER :TUMOR, Dose [Carcinogen]: NONE USED
  tumour outcome (control, treated, inhibition, significance): 11/32 (34%), 8/20 (40%), -18%, not significant
Carcinogen: URETHANE, 51-79-6, Dose [Inhibitor]: 0.05 UMOL/G BW GIVEN AT 6 HR INTERVALS DURING THE PERIOD OF 0 TO 36 HR AFTER CARCINOGEN TREATMENT FOR 7 INJECTIONS FOLLO, Route [Inhibitor]: INTRAPERITONEAL, Species: MOUSE, Strain/Sex: ICR/FEMALE, Target Tissue: Type of Lesion: LUNG: PAPILLARY ADENOMA, Dose [Carcinogen]: 0.1 MG/G BW SINGLE INJECTION, Promoter: NONE USED
  tumour outcome (control, treated, inhibition, significance): 31/59 (53%), 7/32 (22%), 58%, p<0.01
